Measured values published in PubChem BioAssay AID2005 (Sanford-Burnham Center for Chemical Genomics, 2009).
Active and inactive are the calls of the source.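 How the source made its calls: active means plate Z score at or below -3, or inhibition of at least 30% at 20 µM; inactive means the rest.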

Experiment: EGFP reporter destabilization counter-screen – F442A EGFP cells, fluorescence, counter-screen for p/CIP destabilizer project, dose response (AID 2005);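 further: cells express EGFP alone from a CMV promoter as a counter screen for p/CIP-EGFP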
Details: F442A EGFP cells, EGFP fluorescence, 16 h, stronger effect = higher value

Compound | inhibition (EGFP decrease, at 10 µM) | inhibition (at 20 µM)
CCC1=C(OC(=O)N(CC)CC)N2C(=O)OC(=NCC(=O)OC)[C@]2(Cc2ccccc2)[C@H]2C1=CC[C@H]1C(=O)N(c3ccccc3)C(=O)[C@H]12 | 8.2% | 2% (inactive)
O=c1c(Br)c(Br)cnn1-c1ccccc1 | 14.6% | 29.7% (inactive)
CS(=O)(=O)N(CC(=O)N1CCN(Cc2ccc3c(c2)OCO3)CC1)c1ccc2c(c1)OCO2 | 15.1% | -15.1% (inactive)
CC(=O)N1CCN(C(=O)CCCNC(=O)c2ccc(Cl)cc2)CC1 | 21% | -1.6% (inactive)
COc1cccc(CNC(=O)C2CCN(c3cnccn3)CC2)c1 | -0.8% | 8.6% (inactive)
O=c1c2ccccc2[nH]c2ccccc12 | 13.8% | 18.3% (inactive)
O=C(OCC(=O)N1CCC(Cc2ccccc2)CC1)c1ccccc1 | -1.5% | -16% (inactive)
COc1ccc(OC)c(Nc2cc(C)c3ccccc3n2)c1 | 13.3% | 5.4% (inactive)
CCc1cc2c(NCCC(=O)O)nc(C)nc2s1 | 20.9% | 21% (inactive)
CCCCOc1ccc(/C(O)=C2/C(=O)C(=O)N(CCCOC)C2c2ccncc2)cc1 (stereo not given) | 5.3% | -10.4% (inactive)
CCOCCc1nnc(NC(=O)CS(=O)(=O)Cc2ccccc2)s1 | 12% | 6% (inactive)
Cn1c(C(=O)NCc2cccnc2)cc2sc(Cl)cc21 | 28.8% | 32.9%
COc1ccc(N2CCN(C(=O)c3cn(C)c(=O)c4c3c3ccccc3n4C)CC2)cc1 | 6.2% | 20.1% (inactive)
CC1CN(C(=O)c2cn3ccccc3n2)CC(C)O1 (stereo not given) | 9.8% | 22.5% (inactive)
Cc1ccc(C2C(C#N)=C(N)Oc3cc4c(cc32)OCO4)cc1 (stereo not given) | 15.9% | 18.9% (inactive)
CCCCn1c(SCC(=O)NCc2ccco2)nc2c(sc3ccccc32)c1=O | 20.5% | 13.2% (inactive)
Cc1c(NC(=O)CN2C(=O)NC3(CCC(C)CC3)C2=O)c(=O)n(-c2ccccc2)n1C (stereo not given) | 5.2% | 0.8% (inactive)
Cc1c(N=NC2=C(O)CCCC2=O)c(=O)n(-c2ccccc2)n1C | 6.5% | 21.3% (inactive)
CC(=O)N1c2c(cc(Br)cc2S(=O)(=O)NCc2ccccc2)CC1C (stereo not given) | 26.4% | 20.8% (inactive)
CN(C(=O)c1ccc2c(c1)CCN2S(C)(=O)=O)c1ccccc1 | -5.5% | -19.7% (inactive)

Compound | inhibition (EGFP decrease, at 10 µM) | inhibition (at 20 µM)
Cc1nc2cc3ccccc3cc2c(=O)[nH]1 | 12.2% | 3.3% (inactive)
CCOc1ccc(-c2c[n+]3c(n2-c2ccccc2)CCCCC3)cc1 | 32.2% | 51.3%
NC(=O)COC(=O)CSc1cccc2cccc(Cl)c12 | 24% | 10.6% (inactive)
CCc1ccc(NC(=S)N2CCC(NC(=O)c3ccccc3OC)CC2)cc1 | -7.8% | 5.4% (inactive)
NNC(=O)c1ccc(-c2cccc([N+](=O)[O-])c2)o1 | 4.6% | 9.1% (inactive)
CCN1CCN(Cc2ccc(NC(=O)c3cc(NC(=O)c4cncc(-c5ccc(C#N)cc5)c4)cc(OC)c3)cc2C(F)(F)F)CC1 | 3% | 11.7% (inactive)
COc1ccccc1-c1cn[nH]c(=S)n1 | 24.4% | 8.7% (inactive)
CCCc1sc(N/N=C/c2ccccn2)nc1-c1ccc(F)cc1 | 20.3% | 20.4% (inactive)
Cc1cc(=O)[nH]c(SCC(=O)O)c1C#N | 24% | 10.9% (inactive)
COc1cccc(/C=N/n2c(C3CCCCC3)n[nH]c2=S)c1O | 1.4% | 27.7% (inactive)
CC(C)CN(C(=O)c1cccc(F)c1)c1c(N)n(CC(C)C)c(=O)[nH]c1=O | 32.3% | 18.5% (inactive)
C=CCN1C(=O)/C(=C2/Sc3ccccc3N2C)SC1=Nc1ccccc1C | 1.3% | 8.6% (inactive)
CSCCC(CO)NC(=O)OCc1ccccc1 (stereo not given) | 10.8% | -23.3% (inactive)
CC1CC(C)CN(C(=O)C2CCN(S(=O)(=O)c3cccs3)CC2)C1 (stereo not given) | 1.5% | 8.5% (inactive)
Cc1ccccc1OC(C)C(=O)Nc1ccc(S(=O)(=O)Nc2nccs2)cc1 (stereo not given) | -2.8% | -1.1% (inactive)
CC(C)C(=O)Nc1nnc(SCC(=O)NCc2cccs2)s1 | 11.1% | 12% (inactive)
CCCC(=O)c1c[nH]c(C(=O)NCCc2ccccn2)c1 | 20.5% | 29.1% (inactive)
NC(=O)c1cccn(Cc2ccc(C(F)(F)F)cc2)c1=O | 6.5% | 5.4% (inactive)
CCNc1nc(C)c2cc(Br)c(=O)n(CC)c2n1 | 18.2% | 4.8% (inactive)
COc1ccc(CCNC(=O)c2ccncc2)cc1OC | -3.3% | 20.8% (inactive)
